The structures appear in SMILES notation.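 Five compound concentrations were applied to cells in 96-well plates for 48 hours; endpoints were derived by simple linear interpolation of the resulting dose-response curve. GI50 marks 50% less growth.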 Active and inactive are the calls of the source. Cut-off read from the data, not from the text of the source: active = GI50 up to about 1.1 µM and inactive = higher.

4 molecules from ChEMBL document CHEMBL1201862, “PubChem BioAssay data set” (2004) can be followed below.

Among the test systems are HL-60; RPMI-8226; HT-29; T47D; SF-539; NCI/ADR-RES; OVCAR-3; SNB-19; UO-31; HOP-92; CAKI-1; HCT-15; SK-MEL-28; MOLT-4; HCC 2998; SF-295; MDA-MB-435; HOP-62; COLO 205.
Holding throughout (test): DTP human tumour cell line panel, 48 h

For the molecule `O=C(O)CO[C@@]12C#C/C=C\C#C[C@@H]3N(C(=O)Oc4ccccc4)c4ccccc4[C@]14O[C@@]34CCC2`, the GI50 is 26.5 µM (inactive) with HL-60; 31.6 µM (inactive) with RPMI-8226; 45.4 µM (inactive) in the assay on HT-29; 10.3 µM (inactive) in the assay on T47D; 31.4 µM (inactive) in the assay on SF-539; 31.6 µM (inactive) with NCI/ADR-RES. In addition, the GI50 with OVCAR-3 is 47.1 µM (inactive); with SNB-19, 37 µM (inactive); in the assay on UO-31, 24.1 µM (inactive); in the assay with HOP-92, 57.4 µM (inactive); in the assay with CAKI-1, 38.7 µM (inactive); in the assay on HCT-15 it was 8.55 µM. The GI50 with SK-MEL-28 is 52.8 µM (inactive); with MOLT-4, 28.8 µM (inactive); in the assay on HCC 2998, 12.5 µM (inactive); in the assay on SF-295, > 10 µM (inactive); in the assay with MDA-MB-435, 1.53 µM (inactive); with HOP-62, 83.8 µM (inactive). Besides, in the assay with COLO 205, the GI50 was 20 µM (inactive).

With `O=C1CC(C(O)CO)CC(=O)N1` (stereo not given), the GI50 in the assay on HL-60, with RPMI-8226, in the assay on HT-29, with T47D, with SF-539 and in the assay on NCI/ADR-RES was > 100 µM (inactive) in each case. Also, the GI50 is > 100 µM (inactive) with OVCAR-3; > 100 µM (inactive) with SNB-19; > 100 µM (inactive) in the assay with UO-31; > 100 µM (inactive) with HOP-92; > 100 µM (inactive) in the assay on CAKI-1; above 100 µM in the assay with HCT-15. For the same molecule, the GI50 was > 100 µM (inactive) in the assay on SK-MEL-28; > 10 µM (inactive) with MOLT-4; > 100 µM (inactive) in the assay on HCC 2998; > 100 µM (inactive) in the assay on SF-295; > 100 µM (inactive) in the assay with MDA-MB-435; > 100 µM (inactive) in the assay with HOP-62.

As for `COc1ccc(/C=C(\C#N)c2nc(N)nc(N3N=C(C)CC3(C)C)n2)c(O)c1`, the GI50 with HL-60 was 16.5 µM (inactive); in the assay with RPMI-8226, 41.3 µM (inactive); with HT-29, 19.2 µM (inactive); in the assay on T47D it was 15.9 µM (inactive); with SF-539, 15.7 µM (inactive); with NCI/ADR-RES, 31 µM (inactive). Moreover, the GI50 in the assay with OVCAR-3 is 15 µM (inactive); with SNB-19, 35.1 µM (inactive); in the assay on UO-31, 17.3 µM (inactive); in the assay with HOP-92, 31.5 µM (inactive); with CAKI-1 it was 17.2 µM (inactive); in the assay with HCT-15, 17.7 µM. Besides, the GI50 was 14.5 µM (inactive) in the assay on SK-MEL-28; 13.1 µM (inactive) with MOLT-4; 19.2 µM (inactive) in the assay on HCC 2998; 19.1 µM (inactive) in the assay with SF-295; 16.9 µM (inactive) with MDA-MB-435; 24.1 µM (inactive) in the assay on HOP-62. The GI50 in the assay with COLO 205 is 17 µM (inactive).

Consider `Cc1[nH]n(-c2nc(-c3ccccc3)cc(=O)[nH]2)c(=O)c1CCO`, for which the GI50 was > 100 µM (inactive) in the assay on HL-60; > 100 µM (inactive) in the assay on RPMI-8226; > 100 µM (inactive) in the assay with HT-29; > 100 µM (inactive) in the assay on T47D; > 100 µM (inactive) in the assay with SF-539; 71.1 µM (inactive) with NCI/ADR-RES. Also, the GI50 is > 100 µM (inactive) with OVCAR-3; > 100 µM (inactive) with SNB-19; > 100 µM (inactive) in the assay with UO-31; > 100 µM (inactive) in the assay on HOP-92; > 100 µM (inactive) with CAKI-1; above 100 µM with HCT-15. The GI50 with SK-MEL-28 was > 100 µM (inactive); in the assay with MOLT-4, 63.5 µM (inactive); in the assay with HCC 2998 it was > 100 µM (inactive); in the assay on SF-295, > 100 µM (inactive); in the assay with MDA-MB-435, > 100 µM (inactive); in the assay on HOP-62 it was > 100 µM (inactive). Moreover, in the assay on COLO 205, the GI50 was > 100 µM (inactive).
